Measured values taken from patent US10618918B2, “Substituted boronic acids as antimicrobials” (priority 2015, dated 2020).
Where two headings read alike, the source gives them in different places.

Legend:
ec302 TEM-10 = assay: Aztreonam potentiation (MPC@4), strain ec302 TEM-10; settings: minimum BLI concentration inhibiting growth with aztreonam 4 μg/mL; tested up to 40 μg/mL
KP1004 KPC-2 [1] = assay: Biapenem potentiation (MPC@1), strain KP1004 KPC-2; assay type: cell-based; settings: minimum BLI concentration inhibiting growth with biapenem 1 μg/mL; tested up to 40 μg/mL
Experimental: (§1) Biapenem was present in the test medium at 1 μg/mL. […] Table 3 summarizes the BLI potency of biapenem potentiation (MPC@1) for two strains overexpressing class A (KPC) and class D (OXA-48) carbapenemases. Biapenem MIC for each strain is also shown.

KP1010 SHV-12 = assay: Aztreonam potentiation (MPC@4), strain KP1010 SHV-12; settings: minimum BLI concentration inhibiting growth with aztreonam 4 μg/mL; tested up to 40 μg/mL
[2] = molecular target: purified class A, C and D enzymes (β-lactamases) (Enterobacter cloacae, UniProt P05364); assay: biochemical; assay type: biochemical
[3] = molecular target: T1, purified class A, C and D enzymes (β-lactamases) (Acinetobacter baumannii, UniProt Q9L4P2); assay: biochemical; assay type: biochemical; settings: purified OXA-23; nitrocefin (NCF) as reporter substrate
T1 construct: rows headed: Ki (OXA-23, NCF), uM; other: purified OXA-23; nitrocefin (NCF) as reporter substrate

[4] = molecular target: purified class A, C and D enzymes (β-lactamases) (Klebsiella pneumoniae, UniProt Q6XEC0); assay: biochemical; assay type: biochemical
[5] = molecular target: purified class A, C and D enzymes (β-lactamases) (Klebsiella pneumoniae, UniProt Q9F663); assay: biochemical; assay type: biochemical
[6] = molecular target: T2, purified class A, C and D enzymes (β-lactamases) (Pseudomonas aeruginosa, UniProt P24735); assay: biochemical; assay type: biochemical
T2 construct: rows headed: Ki (Pa-AmpC, NCF), uM; other: purified Pa-AmpC; nitrocefin (NCF) as reporter substrate

EC1010 CMY-6 = assay: Aztreonam potentiation (MPC@4), strain EC1010 CMY-6; settings: minimum BLI concentration inhibiting growth with aztreonam 4 μg/mL; tested up to 40 μg/mL
ec308 SHV-5 = assay: Aztreonam potentiation (MPC@4), strain ec308 SHV-5; settings: minimum BLI concentration inhibiting growth with aztreonam 4 μg/mL; tested up to 40 μg/mL
ECL1002 = assay: Aztreonam potentiation (MPC@4), strain ECL1002; settings: minimum BLI concentration inhibiting growth with aztreonam 4 μg/mL; tested up to 40 μg/mL
KP1086 OXA-48 = assay: Biapenem potentiation (MPC@1), strain KP1086 OXA-48; assay type: cell-based; settings: minimum BLI concentration inhibiting growth with biapenem 1 μg/mL; tested up to 40 μg/mL
Experimental: as §1

KP1009 CTX-M-15 = assay: Aztreonam potentiation (MPC@4), strain KP1009 CTX-M-15; settings: minimum BLI concentration inhibiting growth with aztreonam 4 μg/mL; tested up to 40 μg/mL
KP1005 CTX-M-14 = assay: Tigemonam potentiation (MPC@4), strain KP1005 CTX-M-14; settings: minimum BLI concentration inhibiting growth with tigemonam 4 μg/mL; tested up to 40 μg/mL
AB1054 OXA-23 = assay: Meropenem potentiation (MPC@8), strain AB1054 OXA-23; assay type: cell-based, Acinetobacter baumannii; settings: for MPM MPC8 AB1054 OXA-23: minimum BLI concentration inhibiting growth with meropenem 8 μg/mL, tested up to 20 μg/mL
AB1053 OXA-72 = assay: Meropenem potentiation (MPC@8), strain AB1053 OXA-72; assay type: cell-based, Acinetobacter baumannii; settings: for MPM MPC8 AB1053 OXA-72: minimum BLI concentration inhibiting growth with meropenem 8 μg/mL, tested up to 20 μg/mL
KP1004 KPC-2 [7] = assay: Aztreonam potentiation (MPC@4), strain KP1004 KPC-2; settings: minimum BLI concentration inhibiting growth with aztreonam 4 μg/mL; tested up to 40 μg/mL
[8] = purified OXA-48, nitrocefin (NCF) as reporter substrate
[9] = purified KPC-2, nitrocefin (NCF) as reporter substrate

SMILES	AZT MPC4 TEM-10 ec302 (ec302 TEM-10)	BPM MPC1 KP1004 KPC-2 (KP1004 KPC-2 [1])	AZT MPC4 SHV-12 KP1010 (KP1010 SHV-12)	Ki (P99, NCF), uM [2]	Ki [3]	Ki (OXA-48, NCF), uM [4, 8]	Ki (KPC-2, NCF), uM [5, 9]	Ki [6]	AZT MPC4 CMY-6 EC1010 (EC1010 CMY-6)	AZT MPC4 SHV-5 ec308 (ec308 SHV-5)	AZT MPC4 ECL1002 (ECL1002)	BPM MPC1 OXA-48 KP1086 (KP1086 OXA-48)	AZT MPC4 CTX-M-15 KP1009 (KP1009 CTX-M-15)	TIG MPC4 CTX-M-14 KP1005 (KP1005 CTX-M-14)	MPM MPC8 AB1054 OXA-23 (AB1054 OXA-23)	MPM MPC8 AB1053 OXA-72 (AB1053 OXA-72)	AZT MPC4 KPC-2 KP1004 (KP1004 KPC-2 [7])	also measured
O=C([O-])c1ccnc2c1O[B-](O)(O)CC2.[Na+].[Na+] [Compound 38, Disodium; 8,8-dihydroxy-7-oxa-2-aza-8-boranuidabicyclo[4.4.0]deca-1,3,5-triene-5-carboxylate]	Z (Z = MPC@4 > 20 μg/mL)	X (X = MPC@1 ≤ 5 μg/mL)	Z (Z = MPC@4 > 20 μg/mL)	Z (key: X = Ki ≤ 0.1 μM; Y = 0.1 μM < Ki ≤ 1 μM; Z = Ki > 1 μM)	> 1000 nM	X (X = Ki ≤ 0.1 μM)	Y (Y = 0.1 μM < Ki ≤ 1 μM)	> 1000 nM	Y (Y = 5 μg/mL < MPC@4 ≤ 20 μg/mL)	Z (Z = MPC@4 > 20 μg/mL)	Z (Z = MPC@4 > 20 μg/mL)	Y (Y = 5 μg/mL < MPC@1 ≤ 20 μg/mL)	Z (Z = MPC@4 > 20 μg/mL)	Z (Z = MPC@4 > 20 μg/mL)	Z (Z = MPC@1 > 20 μg/mL)	Z (Z = MPC@1 > 20 μg/mL)	Y (Y = 5 μg/mL < MPC@4 ≤ 20 μg/mL)	
COCC#CCOc1ccc2c(c1C(=O)[O-])O[B-](O)(O)CC2.[Na+].[Na+] [Compound 31, Disodium; 4,4-dihydroxy-8-(4-methoxybut-2-ynoxy)-5-oxa-4-boranuidabicyclo[4.4.0]deca-1(6),7,9-triene-7-carboxylate]	Y (Y = 5 μg/mL < MPC@4 ≤ 20 μg/mL)	X (X = MPC@1 ≤ 5 μg/mL)	X (X = MPC@4 ≤ 5 μg/mL)	X (key: X = Ki ≤ 0.1 μM; Y = 0.1 μM < Ki ≤ 1 μM; Z = Ki > 1 μM)	< 100 nM	X (X = Ki ≤ 0.1 μM)	X (X = Ki ≤ 0.1 μM)	< 100 nM	X (X = MPC@4 ≤ 5 μg/mL)	X (X = MPC@4 ≤ 5 μg/mL)	X (X = MPC@4 ≤ 5 μg/mL)	X (X = MPC@1 ≤ 5 μg/mL)	Y (Y = 5 μg/mL < MPC@4 ≤ 20 μg/mL)	Y (Y = 5 μg/mL < MPC@4 ≤ 20 μg/mL)	X (X = MPC@1 ≤ 5 μg/mL)	X (X = MPC@1 ≤ 5 μg/mL)	X (X = MPC@4 ≤ 5 μg/mL)	
O=C([O-])c1c(OCC#CCO)ccc2c1O[B-](O)(O)CC2.[Na+].[Na+] [Compound 30, Disodium; 4,4-dihydroxy-8-(4-hydroxybut-2-ynoxy)-5-oxa-4-boranuidabicyclo[4.4.0]deca-1(6),7,9-triene-7-carboxylate]	X (X = MPC@4 ≤ 5 μg/mL)	X (X = MPC@1 ≤ 5 μg/mL)	X (X = MPC@4 ≤ 5 μg/mL)	X (key: X = Ki ≤ 0.1 μM; Y = 0.1 μM < Ki ≤ 1 μM; Z = Ki > 1 μM)	< 100 nM	X (X = Ki ≤ 0.1 μM)	X (X = Ki ≤ 0.1 μM)	< 100 nM	X (X = MPC@4 ≤ 5 μg/mL)	X (X = MPC@4 ≤ 5 μg/mL)	X (X = MPC@4 ≤ 5 μg/mL)	Y (Y = 5 μg/mL < MPC@1 ≤ 20 μg/mL)	X (X = MPC@4 ≤ 5 μg/mL)	Y (Y = 5 μg/mL < MPC@4 ≤ 20 μg/mL)	X (X = MPC@1 ≤ 5 μg/mL)	X (X = MPC@1 ≤ 5 μg/mL)	X (X = MPC@4 ≤ 5 μg/mL)	
C[C@@H](O)[C@H]1C(=O)N2C(C(=O)O)=C(S[C@@H]3CN[C@H](C(=O)N(C)C)C3)[C@H](C)[C@H]12 [Meropenem, reference compound]																		MIC (AB1054 OXA-23; Acinetobacter baumannii, strain AB1054 OXA-23, meropenem alone): 32 µg/mL; MIC (AB1053 OXA-72; Acinetobacter baumannii, strain AB1053 OXA-72, meropenem alone): > 64 µg/mL
N#CCOc1ccc2c(c1C(=O)O)OB(O)CC2 [Compound 47, 7-(Cyanomethoxy)-2-hydroxy-3,4-dihydro-1,2-benzoxaborinine-8-carboxylic acid]	X (X = MPC@4 ≤ 5 μg/mL)	X (X = MPC@1 ≤ 5 μg/mL)	X (X = MPC@4 ≤ 5 μg/mL)		< 100 nM	X (X = Ki ≤ 0.1 μM)	X (X = Ki ≤ 0.1 μM)		X (X = MPC@4 ≤ 5 μg/mL)	X (X = MPC@4 ≤ 5 μg/mL)	X (X = MPC@4 ≤ 5 μg/mL)	X (X = MPC@1 ≤ 5 μg/mL)	X (X = MPC@4 ≤ 5 μg/mL)	X (X = MPC@4 ≤ 5 μg/mL)	X (X = MPC@1 ≤ 5 μg/mL)	X (X = MPC@1 ≤ 5 μg/mL)	X (X = MPC@4 ≤ 5 μg/mL)	Ki (P99, NCF), uM ([2]; purified P99, nitrocefin (NCF) as reporter substrate): X (X = Ki ≤ 0.1 μM); Ki ([6]; purified Pa-AmpC, nitrocefin (NCF) as reporter substrate, read-out: Ki (Pa-AmpC, NCF)): < 100 nM
CSc1ccc2c(c1C(=O)[O-])O[B-](O)(O)CC2.[Na+].[Na+] [Compound 36, Disodium; 4,4-dihydroxy-8-methylsulfanyl-5-oxa-4-boranuidabicyclo[4.4.0]deca-1(6),7,9-triene-7-carboxylate]	X (X = MPC@4 ≤ 5 μg/mL)	X (X = MPC@1 ≤ 5 μg/mL)	X (X = MPC@4 ≤ 5 μg/mL)	X (key: X = Ki ≤ 0.1 μM; Y = 0.1 μM < Ki ≤ 1 μM; Z = Ki > 1 μM)	< 100 nM	X (X = Ki ≤ 0.1 μM)	X (X = Ki ≤ 0.1 μM)	< 100 nM	X (X = MPC@4 ≤ 5 μg/mL)	X (X = MPC@4 ≤ 5 μg/mL)	X (X = MPC@4 ≤ 5 μg/mL)	X (X = MPC@1 ≤ 5 μg/mL)	Y (Y = 5 μg/mL < MPC@4 ≤ 20 μg/mL)	Y (Y = 5 μg/mL < MPC@4 ≤ 20 μg/mL)	X (X = MPC@1 ≤ 5 μg/mL)	Y (Y = 5 μg/mL < MPC@1 ≤ 20 μg/mL)	X (X = MPC@4 ≤ 5 μg/mL)	
C[C@]1(Cn2ccnn2)[C@H](C(=O)O)N2C(=O)C[C@H]2S1(=O)=O [Tazobactam, reference compound]	X (X = MPC@4 ≤ 5 μg/mL)	Z (Z = MPC@1 > 20 μg/mL)	X (X = MPC@4 ≤ 5 μg/mL)						Y (Y = 5 μg/mL < MPC@4 ≤ 20 μg/mL)	Y (Y = 5 μg/mL < MPC@4 ≤ 20 μg/mL)	Z (Z = MPC@4 > 20 μg/mL)	Y (Y = 5 μg/mL < MPC@1 ≤ 20 μg/mL)	Y (Y = 5 μg/mL < MPC@4 ≤ 20 μg/mL)	Y (Y = 5 μg/mL < MPC@4 ≤ 20 μg/mL)			Z (Z = MPC@4 > 20 μg/mL)	Ki (OXA-48, NCF), uM [4]: Y (key: X = Ki ≤ 0.1 μM; Y = 0.1 μM < Ki ≤ 1 μM; Z = Ki > 1 μM); Ki (KPC-2, NCF), uM [5]: Z (key: X = Ki ≤ 0.1 μM; Y = 0.1 μM < Ki ≤ 1 μM; Z = Ki > 1 μM)
C[S+]([O-])c1ccc2c(c1C(=O)[O-])O[B-](O)(O)CC2.[Na+].[Na+] (stereo not shown) [Compound 40, Disodium; 4,4-dihydroxy-8-methylsulfinyl-5-oxa-4-boranuidabicyclo[4.4.0]deca-1(6),7,9-triene-7-carboxylate]	X (X = MPC@4 ≤ 5 μg/mL)	X (X = MPC@1 ≤ 5 μg/mL)	X (X = MPC@4 ≤ 5 μg/mL)	X (key: X = Ki ≤ 0.1 μM; Y = 0.1 μM < Ki ≤ 1 μM; Z = Ki > 1 μM)		X (X = Ki ≤ 0.1 μM)	X (X = Ki ≤ 0.1 μM)	< 100 nM	X (X = MPC@4 ≤ 5 μg/mL)	X (X = MPC@4 ≤ 5 μg/mL)	X (X = MPC@4 ≤ 5 μg/mL)	X (X = MPC@1 ≤ 5 μg/mL)	X (X = MPC@4 ≤ 5 μg/mL)	X (X = MPC@4 ≤ 5 μg/mL)	Z (Z = MPC@1 > 20 μg/mL)	Z (Z = MPC@1 > 20 μg/mL)	X (X = MPC@4 ≤ 5 μg/mL)	
